Experimental data as given in patent US20210395313A1, “PEPTIDE PAC1 ANTAGONISTS” (AMGEN INC., priority 2017, published 2021).
Where a SMILES comes first, the peptide text is derived from it. Bridges are numbered along the chain shown (N, C = ends). Where no end group is shown, it is not given here.

Assays:
rat PAC1 receptor = biological target: T1, rat PAC1 receptor (Rattus norvegicus, UniProt P32215); test: LANCE Ultra cAMP accumulation antagonist assay in RG-2 cells; format: cell-based;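 note: RG-2 rat glioma cells endogenously expressing PAC1, test peptide preincubated 30 min, then PAC1 agonist added at its EC80 for 15 min, cAMP accumulation read by LANCE Ultra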
T1 construct: SHSY-5Y (human neuroblastoma cell line) and RG-2 (rat glioma cell line) cells endogenously express human and rat PAC1 receptors, respectively; endogenous in cells; host or cells: RG-2 rat glioma cells
T1 sequence (P32215 20-523): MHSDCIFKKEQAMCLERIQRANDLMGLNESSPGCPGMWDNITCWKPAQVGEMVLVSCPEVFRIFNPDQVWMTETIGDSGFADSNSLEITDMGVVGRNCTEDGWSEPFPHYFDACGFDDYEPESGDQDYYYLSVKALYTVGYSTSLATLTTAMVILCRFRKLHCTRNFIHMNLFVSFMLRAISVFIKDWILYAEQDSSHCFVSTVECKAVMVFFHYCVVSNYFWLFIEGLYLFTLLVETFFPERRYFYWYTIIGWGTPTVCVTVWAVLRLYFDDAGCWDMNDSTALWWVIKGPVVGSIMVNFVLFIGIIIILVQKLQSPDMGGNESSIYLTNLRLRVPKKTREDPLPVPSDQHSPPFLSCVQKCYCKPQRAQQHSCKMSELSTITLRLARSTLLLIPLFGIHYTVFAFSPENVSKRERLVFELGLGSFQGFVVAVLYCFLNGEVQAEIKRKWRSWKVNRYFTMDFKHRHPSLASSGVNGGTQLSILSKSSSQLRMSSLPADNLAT

human PAC1 receptor = biological target: T2, human PAC1 receptor (Homo sapiens, UniProt P41586); test: LANCE Ultra cAMP accumulation antagonist assay in SHSY-5Y cells; format: cell-based;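 note: inhibition of cAMP accumulation evoked by PAC1 agonist at its EC80 in SHSY-5Y cells endogenously expressing receptor, 30 min preincubation then 15 min agonist, TR-FRET readout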
T2 construct: SHSY-5Y (human neuroblastoma cell line) and RG-2 (rat glioma cell line) cells endogenously express human and rat PAC1 receptors, respectively; endogenous in cells; host or cells: SHSY-5Y human neuroblastoma cells
T2 sequence (P41586 21-468): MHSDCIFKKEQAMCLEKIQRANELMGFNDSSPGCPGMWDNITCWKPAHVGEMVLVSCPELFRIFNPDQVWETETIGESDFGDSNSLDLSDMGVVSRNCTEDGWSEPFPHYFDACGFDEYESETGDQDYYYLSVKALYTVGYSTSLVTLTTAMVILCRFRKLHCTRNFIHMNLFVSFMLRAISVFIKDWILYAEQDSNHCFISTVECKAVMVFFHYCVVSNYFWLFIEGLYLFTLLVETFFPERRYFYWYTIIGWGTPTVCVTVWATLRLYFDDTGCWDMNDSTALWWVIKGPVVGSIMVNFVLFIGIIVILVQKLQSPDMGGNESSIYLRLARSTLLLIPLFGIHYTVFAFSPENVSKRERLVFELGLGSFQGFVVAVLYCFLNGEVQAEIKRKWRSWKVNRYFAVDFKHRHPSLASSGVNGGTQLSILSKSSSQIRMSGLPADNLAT

Compound	IC50 (rat PAC1 receptor) [nM]	IC50 (human PAC1 receptor) [nM]
CC[C@H](C)[C@H](NC(=O)[C@H](C)NC(=O)[C@H](CCCCN)NC(=O)[C@H](CCCNC(=N)N)NC(=O)[C@H](Cc1ccccc1)NC(=O)[C@H](CCC(N)=O)NC(=O)[C@@H]1CSSC[C@H](N)C(=O)N[C@@H](CC(=O)O)C(=O)N[C@@H](C)C(=O)N[C@@H]([C@@H](C)O)C(=O)N1)C(=O)N[C@@H](CC(=O)O)C(=O)N[C@@H](CC(=O)O)C(=O)N[C@H]1CSSC[C@@H](C(=O)N[C@@H](CCSC)C(=O)N[C@@H](CCCCN)C(=O)N[C@@H](CCC(N)=O)C(=O)N[C@@H](CCCCN)C(=O)N[C@@H](CCCCN)C(=O)N[C@@H](CCCCN)C(=O)N[C@@H](CCC(=O)O)C(=O)N[C@@H](Cc2ccccc2)C(=O)N[C@@H](CCCCN)C(=O)N[C@@H](C)C(=O)NCC(=O)N[C@@H](Cc2ccc(O)cc2)C(=O)O)NC(=O)[C@H](C)NC(=O)[C@H](CCCCN)NC(=O)[C@H](Cc2ccccc2)NC(=O)[C@H](C(C)C)NC(=O)[C@H](CO)NC(=O)[C@H](CO)NC(=O)[C@H](Cc2c[nH]cn2)NC(=O)[C@H](C)NC(=O)[C@H](CCC(N)=O)NC(=O)[C@H](CCCCN)NC(=O)[C@H](C)NC1=O [compound 37] (H-CDATCQFRKAIDDCAKQAHSSVFKACMKQKKKEFKAGY-OH; disulfide 1-5, 14-26)	0.01 to 1	1 to 100
CDATCQYRKGLVACLYKKVAMQKRYSVFKACMKQKKKEFKAG-NH2 (disulfide 1-5, 14-31) [compound 46]	0.01 to 1	1 to 100
GCDATCQFRKAIDDCAKQAHHSNVPGSVFKACMKQKKKEFKAGH (disulfide 2-6, 15-32) [compound 59]	0.01 to 1	0.01 to 1
CDATCQFRKAIDDCYKQAHHSNVPGSVFKACMKQKKKEFKAGH (disulfide 1-5, 14-31) [compound 47]	0.01 to 1	0.01 to 1
CDATCQFRKAIDECARQAHHSNVPGSVFKACMKQKKKEWKAGH (disulfide 1-5, 14-31) [compound 25]	< 0.01	0.01 to 1
CDATCQFRKAIDDCQKQAHHSNVPGSVFKACMKFRRFLWKAG-NH2 (disulfide 1-5, 14-31) [compound 128]	0.01 to 1	0.01 to 1
CDATCQFRKAIDDCAKQAHHSNVPGSVFKACMKQKKKEFKAGY (disulfide 1-5, 14-31) [SEQ ID NO 56]	0.01 to 1	0.01 to 1
CDATCQFRKAIDDCMLFSWHSNVPGSVFKACMKQKKKEFKAG-NH2 (disulfide 1-5, 14-31) [compound 131]	0.01 to 1	0.01 to 1
CDATCQFRKAIDDCARQAHHSNVPGSVFKACFKQKKKEWKAGH (disulfide 1-5, 14-31) [compound 39]	0.01 to 1	0.01 to 1
CDATCQFRKAIDDCQKQAYHSNVPGNSVFKECMKQKKKEFK-NH2 (disulfide 1-5, 14-32) [compound 306]	1 to 100	1 to 100
CDATCQFRKAIDDCFWLASHSNVPGSVWKACMKQKKKEFKAG-NH2 (disulfide 1-5, 14-31) [compound 119]	0.01 to 1	0.01 to 1
CDATCQFRKAIDDCYWQAIHANVPGSVWKACMKQKKKEFKAG-NH2 (disulfide 1-5, 14-31) [compound 138]	0.01 to 1	0.01 to 1
CDATCQFRKAIDDCYYRSWHANVPGSVFKACMKQKKKEWKAG-NH2 (disulfide 1-5, 14-31) [compound 60]	0.01 to 1	0.01 to 1
CDATCQFRKAIDDCVRQAYHSNVPGSVFKACMKQKKKEWKAGH (disulfide 1-5, 14-31) [compound 84]	0.01 to 1	0.01 to 1
CDATCQFRKAIDDCSWFAIHSNVPGSVFKACMKQKKKEFKAG-NH2 (disulfide 1-5, 14-31) [compound 115]	0.01 to 1	0.01 to 1
CDATCQFRKAIDDCARQAHHSNVPGSVFKSCMKQKKKEWKAGH (disulfide 1-5, 14-31) [compound 24]	0.01 to 1	0.01 to 1
CDATCQFRKAIDDCDRQAHHSNVPGSVFKACMKQKKKEFKAGH (disulfide 1-5, 14-31) [compound 155]	0.01 to 1	1 to 100
CDATCQFRKAIDDCQRQAHHSNVPGNSVFKECMKQKKKEFK-NH2 (disulfide 1-5, 14-32) [compound 288]	1 to 100	1 to 100
CC[C@H](C)[C@H](NC(=O)[C@H](C)NC(=O)[C@H](CCCCN)NC(=O)[C@H](CCCNC(=N)N)NC(=O)[C@H](Cc1ccccc1)NC(=O)[C@H](CCC(N)=O)NC(=O)[C@@H]1CSSC[C@H](N)C(=O)N[C@@H](CC(=O)O)C(=O)N[C@@H](C)C(=O)N[C@@H]([C@@H](C)O)C(=O)N1)C(=O)N[C@@H](CC(=O)O)C(=O)N[C@@H](CC(=O)O)C(=O)N[C@H]1CSSC[C@@H](C(=O)N[C@@H](CCSC)C(=O)N[C@@H](CCCCN)C(=O)N[C@@H](CCC(N)=O)C(=O)N[C@@H](CCCCN)C(=O)N[C@@H](CCCCN)C(=O)N[C@@H](CCCCN)C(=O)N[C@@H](CCC(=O)O)C(=O)N[C@@H](Cc2ccccc2)C(=O)N[C@@H](CCCCN)C(=O)N[C@@H](C)C(=O)NCC(=O)N[C@@H](Cc2c[nH]cn2)C(=O)O)NC(=O)[C@H](C)NC(=O)[C@H](CCCCN)NC(=O)[C@H](Cc2ccccc2)NC(=O)[C@H](C(C)C)NC(=O)[C@H](CO)NC(=O)[C@H](CO)NC(=O)[C@H](Cc2c[nH]cn2)NC(=O)[C@H](Cc2ccc(O)cc2)NC(=O)[C@H](C)NC(=O)[C@H](CCC(N)=O)NC(=O)[C@H](CCCNC(=N)N)NC(=O)[C@H](C)NC1=O [compound 35] (H-CDATCQFRKAIDDCARQAYHSSVFKACMKQKKKEFKAGH-OH; disulfide 1-5, 14-27)	0.01 to 1	0.01 to 1
CC[C@H](C)[C@H](NC(=O)[C@H](C)NC(=O)[C@H](CCCCN)NC(=O)[C@H](CCCNC(=N)N)NC(=O)[C@H](Cc1ccccc1)NC(=O)[C@H](CCC(N)=O)NC(=O)[C@@H]1CSSC[C@H](N)C(=O)N[C@@H](CC(=O)O)C(=O)N[C@@H](C)C(=O)N[C@@H]([C@@H](C)O)C(=O)N1)C(=O)N[C@@H](CC(=O)O)C(=O)N[C@@H](CC(=O)O)C(=O)N[C@H]1CSSC[C@@H](C(=O)N[C@@H](CCSC)C(=O)N[C@@H](CCCCN)C(=O)N[C@@H](CCC(N)=O)C(=O)N[C@@H](CCCCN)C(=O)N[C@@H](CCCCN)C(=O)N[C@@H](CCCCN)C(=O)N[C@@H](CCC(=O)O)C(=O)N[C@@H](Cc2c[nH]c3ccccc23)C(=O)N[C@@H](CCCCN)C(=O)N[C@@H](C)C(=O)NCC(N)=O)NC(=O)[C@H](C)NC(=O)[C@H](CCCCN)NC(=O)[C@H](Cc2ccccc2)NC(=O)[C@H](C(C)C)NC(=O)[C@H](CO)NC(=O)[C@H](CO)NC(=O)[C@H](Cc2c[nH]cn2)NC(=O)[C@H](Cc2c[nH]c3ccccc23)NC(=O)[C@H](CO)NC(=O)[C@H](CCCNC(=N)N)NC(=O)[C@H](Cc2ccc(O)cc2)NC(=O)[C@H](Cc2ccc(O)cc2)NC1=O [compound 61] (H-CDATCQFRKAIDDCYYRSWHSSVFKACMKQKKKEWKAG-NH2; disulfide 1-5, 14-27)	0.01 to 1	0.01 to 1
CDATCQFRKAIDDCVYSAWHANVPGSVFKACMKQKKKEFKAG-NH2 (disulfide 1-5, 14-31) [compound 137]	0.01 to 1	0.01 to 1
CDATCQFRKAIDDCQKQAHHSNVPGSVFKACMKQKKKEFKAGHHHHHH (disulfide 1-5, 14-31) [compound 160]	0.01 to 1	1 to 100
CC[C@H](C)[C@H](NC(=O)[C@H](C)NC(=O)[C@H](CCCCN)NC(=O)[C@H](CCCNC(=N)N)NC(=O)[C@H](Cc1ccccc1)NC(=O)[C@H](CCC(N)=O)NC(=O)[C@@H]1CSSC[C@H](N)C(=O)N[C@@H](CC(=O)O)C(=O)N[C@@H](C)C(=O)N[C@@H]([C@@H](C)O)C(=O)N1)C(=O)N[C@@H](CC(=O)O)C(=O)N[C@@H](CC(=O)O)C(=O)N[C@H]1CSSC[C@@H](C(=O)N[C@@H](CCSC)C(=O)N[C@@H](CCCCN)C(=O)N[C@@H](CCC(N)=O)C(=O)N[C@@H](CCCCN)C(=O)N[C@@H](CCCCN)C(=O)N[C@@H](CCCCN)C(=O)N[C@@H](CCC(=O)O)C(=O)N[C@@H](Cc2c[nH]c3ccccc23)C(=O)N[C@@H](CCCCN)C(=O)N[C@@H](C)C(=O)NCC(=O)N[C@@H](Cc2c[nH]cn2)C(=O)O)NC(=O)[C@H](C)NC(=O)[C@H](CCCCN)NC(=O)[C@H](Cc2ccccc2)NC(=O)[C@H](C(C)C)NC(=O)[C@H](CO)NC(=O)[C@H](CO)NC(=O)[C@H](Cc2c[nH]cn2)NC(=O)[C@H](Cc2ccc(O)cc2)NC(=O)[C@H](C)NC(=O)[C@H](CCC(N)=O)NC(=O)[C@H](CCCNC(=N)N)NC(=O)[C@H](C)NC1=O [compound 27] (H-CDATCQFRKAIDDCARQAYHSSVFKACMKQKKKEWKAGH-OH; disulfide 1-5, 14-27)	0.01 to 1	0.01 to 1
